Data: patent US5922875A, “Aromatic acid diamides with antigastrin activity, a method for their preparation and their pharmaceutical use” (Rotta Research Laboratorium S.p.A., priority 1995, dated 1999)
pIC50: −log10 of the molar value. Where two headings read alike, the source gives them in different places.

Assays:
[1] = test system: acid secretion induced by pentagastrin; test: In vivo gastric anti-secretory activity in the anaesthetised rat, pentagastrin stimulation; details: for times more powerful than CR 2194 / times more powerful than cimetidine: ID50 comparison, rat I.V.; for ED50: iv, read-out: Activity (ID50)
Description: Gastric secretion was stimulated by pentagastrin and the method of Lai [Gut 5, (1964), 327-341] was used with slight modifications [Makovec et al, J.Med.Chem. 35 (1992), 28-38].
Pentagastrin dissolved in physiological saline was perfused for 120 minutes at a rate of 30 mcg/kg/h. After 60 minutes of perfusion (basal stimulation), the product to be tested was administered intravenously (I.V.) in bolus form, perfusion of the stimulant continuing for the remaining 60 minutes. The activity of the product was evaluated as the percentage reduction in acid secreted after the administration of the product with respect to the basal acidity measured in the first 60 minutes, during which time only pentagastrin was present.
The antagonists tested were administered at different doses in such a way as to enable the ID50 to be calculated, that is, the dose (in mg/kg I.V.) capable of inhibiting the effect of pentagastrin by 50%.

central CCK-B receptor = biological target: T1, central CCK-B receptor (Cavia porcellus, UniProt H0VZC5); test: Inhibition of binding of [3H][N-methyl-N-leucine]CCK-8 to guinea pig cortical membranes (anti-CCK-B in vitro)
T1 construct: The cerebral cortices of male albino guinea pigs were therefore used; from tissue; host or cells: cerebral cortex membranes of male albino guinea pigs
T1 sequence (H0VZC5 1-426): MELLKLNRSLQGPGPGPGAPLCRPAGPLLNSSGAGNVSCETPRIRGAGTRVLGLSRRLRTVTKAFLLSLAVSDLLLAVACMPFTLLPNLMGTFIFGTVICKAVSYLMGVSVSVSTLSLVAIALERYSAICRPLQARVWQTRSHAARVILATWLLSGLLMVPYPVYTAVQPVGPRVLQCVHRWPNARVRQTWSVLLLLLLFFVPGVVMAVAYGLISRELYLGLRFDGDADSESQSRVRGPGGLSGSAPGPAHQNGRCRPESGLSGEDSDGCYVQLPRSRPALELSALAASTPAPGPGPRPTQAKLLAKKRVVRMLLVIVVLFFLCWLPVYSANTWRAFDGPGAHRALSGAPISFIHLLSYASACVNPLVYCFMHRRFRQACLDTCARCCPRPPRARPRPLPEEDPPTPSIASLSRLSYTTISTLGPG
Description: The capacity of the compounds which are the subject of the invention to interact with the central CCK-B receptor was evaluated with the use of [3-H][N-methyl-N-leucine]CCK-8. […] The cerebral cortices of male albino guinea pigs were therefore used, the method given above being followed with slight modifications [Makovec et al.; Bioorganic & Med. Chem. Letters 3 (5)(1993), 861-866] so as to give a membrane content corresponding to about 300 mcg of protein/mL.

[2] = biological target: T2, type-B cholecystokynin (CCK-B) or gastrin receptors (Oryctolagus cuniculus, UniProt P46627); test: Inhibition of the gastrin-induced increase of cytosolic calcium in rabbit gastric mucosa cells; type: cell-based
T2 construct: rabbit gastric mucosa cells were prepared by conventional techniques; endogenous in cells; host or cells: freshly isolated rabbit gastric mucosa cells (collagenase/pronase digestion)
T2 sequence (P46627 1-452): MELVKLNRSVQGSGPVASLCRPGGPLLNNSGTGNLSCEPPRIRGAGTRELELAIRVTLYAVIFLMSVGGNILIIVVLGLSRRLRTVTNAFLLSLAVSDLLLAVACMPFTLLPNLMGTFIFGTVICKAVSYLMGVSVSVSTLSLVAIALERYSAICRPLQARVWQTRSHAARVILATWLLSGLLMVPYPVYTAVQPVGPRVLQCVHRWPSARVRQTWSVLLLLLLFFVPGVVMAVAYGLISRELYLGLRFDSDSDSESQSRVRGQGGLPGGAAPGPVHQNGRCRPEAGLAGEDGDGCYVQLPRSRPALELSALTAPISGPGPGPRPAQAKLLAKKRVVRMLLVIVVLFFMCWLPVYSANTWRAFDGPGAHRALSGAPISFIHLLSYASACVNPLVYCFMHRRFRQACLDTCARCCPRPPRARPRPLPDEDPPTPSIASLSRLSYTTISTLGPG
Source text: The parietal cells of the gastric mucosa are responsible for the secretion of HCl. They present specific membrane receptors which may be activated by gastrin and which have been defined as type-B cholecystokynin (CCK-B) or gastrin receptors.
Since it has been observed that the activation of the CCK-B receptors by gastrin results in a raising of the levels of cytosolic calcium ions, a technique has been used for measuring the increase in intracellular calcium induced by gastrin in the presence and absence of the compounds which are the subject of the invention, as an index of the anti-gastrin activity of the compounds themselves.
Suspensions (0.8×10^6 /ml) of rabbit gastric mucosa cells were prepared by conventional techniques with the use of collagenase and pronase as digestive enzymes; the estimation of the [Ca^2+ ]i values, basal or achieved after stimulation of the cell system was carried out in accordance with Grynkiewicz et al [J.Biol.Chem 260 (1985), 3440]. In the control samples the cells were stimulated with […] while in the samples in which the effect of the compounds in question was evaluated, the cells were incubated therewith before stimulation with gastrin. The results are expressed as percentage increases in [Ca^2+ ]i with respect to the control value. The anti-gastrin activity of the compounds was expressed as the IC50 value, that is, the concentration (in μmoles/liter) at which the response to the stimulus induced by the gastrin was reduced by 50%. The results thus obtained for several compounds of the invention are given in Table 3 which also gives an index formed from the ratio between the peripheral anti-gastrin activity just described and the displacement activity derived from the study of binding to the cortical receptors of guinea pigs described above.

[3] = biological target: T3, cholecystokynin receptor (CCK-A) (Cavia porcellus, UniProt Q63931); test: Anti-CCK-A activity, guinea pig gall bladder stimulated in vitro by CCK-8; details: selectivity CCK-B vs CCK-A
T3 construct: The experimental model used was the guinea pig gall bladder stimulated in vitro by CCK-8; from tissue; host or cells: guinea pig gall bladder in vitro
T3 sequence (Q63931 1-430): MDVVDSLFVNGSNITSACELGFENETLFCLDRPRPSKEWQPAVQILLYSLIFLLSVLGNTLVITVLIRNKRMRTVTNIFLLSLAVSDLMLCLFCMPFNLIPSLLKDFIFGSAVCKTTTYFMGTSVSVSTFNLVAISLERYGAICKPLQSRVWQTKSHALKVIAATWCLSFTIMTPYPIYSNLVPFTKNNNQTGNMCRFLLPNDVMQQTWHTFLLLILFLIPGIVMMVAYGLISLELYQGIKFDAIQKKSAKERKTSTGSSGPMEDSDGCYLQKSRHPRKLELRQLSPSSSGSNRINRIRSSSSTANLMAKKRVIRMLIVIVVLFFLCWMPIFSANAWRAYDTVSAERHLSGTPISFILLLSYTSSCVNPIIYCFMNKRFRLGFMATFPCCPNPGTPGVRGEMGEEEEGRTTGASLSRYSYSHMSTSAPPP
Source text: The experimental model used was the guinea pig gall bladder stimulated in vitro by CCK-8 according to the method described by Makovec et al. [(Arzneim. Forsch/Drug. Res. 35 (7), 1048-1051 (1985)].

rats = test: Anxiolytic activity, elevated plus-maze in rats; type: in vivo, rat
Description: It has in fact recently been postulated that the central CCK-B receptor plays an important role in anxiety. This accords with studies also carried out in man which have shown that the central CCK-B mechanisms have an important function in the mediation of panic attacks [Bradwejn, J.et al; J.Psychopharmacology 6 (1992), 345]. In order to confirm this hypothesis, the anxiolytic activities of several of the most powerful CCK-B antagonists of the invention were evaluated by the method of the "elevated plus-maze" in rats, carried out in accordance with Pellow et al. [J. of Neurosc. Meth. 14(1985), 149-167]. A labyrinth was used in which the length of the cross arm was about 45 cm placed at a height from the ground of 70 cm. On this experimental model, a compound having anxiolytic activity produces a percentage increase in the stay time in the open arms and a percentage increase in the number of entries into the open arms.
The results obtained are given in Table 5 below where the activities obtained with different doses of the compound 4 administered intraperitoneally (IP) are given in comparison with a group of animals treated with a physiological saline in the same way.

CCK-B receptors = details: guinea pigs, Knapp et al. 1990; cited from earlier work
[4] = I.V. bolus, rat, pentagastrin perfusion
[5] = displacement of [3H][N-methyl-N-leucine]CCK-8, cortical membrane in guinea pigs, read-out: IC50
[6] = cells stimulated with 5×10^-8 gastrin, [Ca2+]i

In the case of `O=C(O)CC(CC(=O)Nc1cc2ccccc2cc1C(=O)N1CCC2(CCCC2)CC1)c1cccc2ccccc12` (racemic) [Compound 13, 3-(DL)-(1-naphthyl)-5-[2'-carbamoyl(8-azaspiro[4.5]dec-8-yl)]-3'-naphthylamino]-5-oxopentanoic acid], the “times more powerful than CR 2194” value [1] was 10-50 times, the “times more powerful than cimetidine” value [1] was 2-10 times and the ED50 [1, 4] was 1 mg/kg. The pIC50 (central CCK-B receptor; [5]) was 6.65 and the IC50 [2, 6] was 0.037 µM.

`O=C(O)CC[C@@H](NC(=O)c1cc(Cl)cc(Cl)c1)C(=O)N1CCC2(CCCC2)CC1` [CR 2194, reference compound] gave an ED50 [1, 4] of 11 mg/kg.

In the case of `CN/C(=N/CCSCc1nc[nH]c1C)NC#N` [Cimetidine, cimetidine, reference compound], the ED50 [1, 4] was 2.5 mg/kg.

In the case of `Cc1ccc(NC(=O)CC(CC(=O)O)c2cccc3ccccc23)c(C(=O)N2CCC3(CCCC3)CC2)c1` (stereo not drawn) [Compound 3], the pIC50 (central CCK-B receptor; [5]) was 6.73 and the IC50 [2, 6] was 0.03 µM.

For `Cc1cc(C)c(NC(=O)CC(CC(=O)O)c2cccc3ccccc23)c(C(=O)N2CCC3(CCCC3)CC2)c1` (stereo not drawn) [Compound 4], the “times more powerful than CR 2194” value [1] was 10-50 times, the “times more powerful than cimetidine” value [1] was 2-10 times and the ED50 [1, 4] was 0.2 mg/kg. For the same compound, the “affinity times higher for the gastrin receptor (CCK-B) than for the cholecystokynin receptor (CCK-A)” value [3] was “at least 300 times”, the “% Effect VS controls (time)” value (rats; 0.03 mg/kg I.P., rat) was 10.4% and the “% Effect Vs controls (entries)” value (rats; 0.03 mg/kg I.P., rat) was 19.3%. The “Entries to open arm/total entries (%)” value (rats; 0.03 mg/kg I.P., rat) was 36.4%, the “Time in open arm/total time (%)” value (rats; 0.03 mg/kg I.P., rat) was 21.1% and the “% Effect VS controls (time)” value (rats; 0.3 mg/kg I.P., rat) was 47.9%. For the same compound, the “% Effect Vs controls (entries)” value (rats; 0.3 mg/kg I.P., rat) was 39.3%, the “Entries to open arm/total entries (%)” value (rats; 0.3 mg/kg I.P., rat) was 42.5% and the “Time in open arm/total time (%)” value (rats; 0.3 mg/kg I.P., rat) was 28.2%. For the same compound, the “percentage stay time in the open arms compared with controls” value (rats; 0.3 mg/kg I.P., significant vs saline controls) was “increases the percentage stay time in the open arms”, the “% Effect VS controls (time)” value (rats; 3.0 mg/kg I.P., rat) was 4.2% and the “% Effect Vs controls (entries)” value (rats; 3.0 mg/kg I.P., rat) was 11.5%. For the same compound, the “Entries to open arm/total entries (%)” value (rats; 3.0 mg/kg I.P., rat) was 34.0%, the “Time in open arm/total time (%)” value (rats; 3.0 mg/kg I.P., rat) was 19.9% and the “percentage number of entries into the open arm compared with the controls” value (rats; dose range 0.03-3 mg/kg I.P.) was “increases the percentage number of entries into the open arm”. The anxiolytic effect (rats; plus maze, rat, I.P.) was “displays an anxiolytic effect”, the pIC50 (central CCK-B receptor; [5]) was 7.62 and the “times less active than pentagastrin” value (central CCK-B receptor; ratio of binding IC50 values) was 8 times. For the same compound, the IC50 [2, 6] was 0.004 µM and the IC50 ([2]; gastrin-induced [Ca2+]i in rabbit gastric mucosa cells) was 0.004 µM.

Work on `O=C(O)CC(CC(=O)Nc1c(Cl)cccc1C(=O)N1CCC2(CCCC2)CC1)c1cccc2ccccc12` (stereo not drawn) [Compound 5] yielded an ED50 [1, 4] of 2.6 mg/kg.

Compound `O=C(O)CC(CC(=O)Nc1cc(Cl)ccc1C(=O)N1CCC2(CCCC2)CC1)c1cccc2ccccc12` (stereo not drawn) [Compound 6] has a pIC50 (central CCK-B receptor; [5]) of 5.91 and an IC50 [2, 6] of 0.14 µM.

In the case of `COc1cc(NC(=O)CC(CC(=O)O)c2cccc3ccccc23)c(C(=O)N2CCC3(CCCC3)CC2)cc1OC` (stereo not drawn) [Compound 10], the pIC50 (central CCK-B receptor; [5]) was 6.09 and the IC50 [2, 6] was > 0.3 µM.

In the case of `O=C(O)CCC(NC(=O)c1cccc2ccccc12)C(=O)Nc1cccc(C(=O)N2CCC3(CCCC3)CC2)c1` (stereo not drawn) [Compound 12], the ED50 [1, 4] was > 10 mg/kg and the pIC50 (central CCK-B receptor; [5]) was < 6.00.

With `O=C(O)CC(CC(=O)Nc1cc2ccccc2cc1C(=O)N1CCC2(CC1)OCCO2)c1cccc2ccccc12` (stereo not drawn) [Compound 14] the ED50 ([1]; Rattus norvegicus) was 7.9 mg/kg and the pIC50 (central CCK-B receptor) was 5.97.

`Cc1cc(C)c(NC(=O)CC(CC(=O)O)c2cccc(Cl)c2)c(C(=O)N2CCC3(CCCC3)CC2)c1` (stereo not drawn) [Compound 16] gave a pIC50 (central CCK-B receptor; [5]) of 6.40 and an IC50 [2, 6] of 0.082 µM.

With `CN(C(=O)CC(CC(=O)O)c1cccc2ccccc12)c1ccccc1C(=O)N1CCC2(CCCC2)CC1` (stereo not drawn) [Compound 17] the pIC50 (central CCK-B receptor; [5]) was < 6.00.

In the case of `O=C(O)CC(CC(=O)Nc1cc2ccccc2cc1C(=O)N1CCC2(CCCCC2)CC1)c1cccc2ccccc12` (stereo not drawn) [Compound 18], the pIC50 (central CCK-B receptor; [5]) was 6.18 and the IC50 [2, 6] was 0.105 µM.

For `CSCC[C@H](NC(=O)[C@H](Cc1c[nH]c2ccccc12)NC(=O)CCNC(=O)OC(C)(C)C)C(=O)N[C@@H](CC(=O)O)C(=O)N[C@@H](Cc1ccccc1)C(N)=O` [Pentagastrin, reference compound], the pIC50 (central CCK-B receptor; [5]) was 8.52.

For [3-H][N-methyl-N-leucine]CCK-8, the “affinity times higher for the receptors of the cortex (CCK-B) than those of the pancreas (CCK-A)” value (CCK-B receptors) is listed as “about 4000 times”.
